Laboratory results as given in US7297707B2, “Benzothiazolyl derivatives” (Hoffmann-La Roche Inc., priority 2003, dated 2007).

Target: T1, human cannabis CB1 receptor (Homo sapiens, UniProt P21554)
T1 construct: expressed in transfected cells; host or cells: human embryonic kidney (HEK) cells, Semliki Forest Virus system, membrane preparation
Experiment: Affinity for cannabinoid CB1 receptors, [3H]-CP-55,940 radioligand binding on HEK cell membranes
Conditions: affinity for the CB1 receptor, [3H]-CP-55,940, HEK membranes
Description: The affinity of the compounds of the invention for cannabinoid CB1 receptors was determined using membrane preparations of human embryonic kidney (HEK) cells in which the human cannabis CB1 receptor is transiently transfected using the Semliki Forest Virus system in conjunction with [3H]-CP-55,940 as radioligand. After incubation of a freshly prepared cell membrane preparation with the [3H]-ligand, with or without addition of compounds of the invention, separation of bound and free ligand was performed by filtration over glassfiber filters. Radioactivity on the filter was measured by liquid scintillation counting.

T1 sequence (P21554 whole entry): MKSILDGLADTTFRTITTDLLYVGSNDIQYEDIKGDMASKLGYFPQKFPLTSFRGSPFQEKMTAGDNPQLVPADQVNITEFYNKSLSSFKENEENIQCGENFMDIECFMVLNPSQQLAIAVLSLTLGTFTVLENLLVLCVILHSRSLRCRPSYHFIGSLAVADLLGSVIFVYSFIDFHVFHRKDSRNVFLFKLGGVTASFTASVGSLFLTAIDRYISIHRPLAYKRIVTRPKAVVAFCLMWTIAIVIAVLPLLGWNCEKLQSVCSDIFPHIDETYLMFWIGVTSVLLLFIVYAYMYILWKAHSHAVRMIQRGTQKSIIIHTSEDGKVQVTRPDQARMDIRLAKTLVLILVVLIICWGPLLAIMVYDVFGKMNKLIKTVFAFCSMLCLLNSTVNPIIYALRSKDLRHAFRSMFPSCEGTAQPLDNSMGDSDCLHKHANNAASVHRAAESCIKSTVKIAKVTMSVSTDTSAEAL

Row | Structure (SMILES) | IC50 [nM]
1 | COc1ccc(N(C(=O)c2ccc(C(F)(F)F)cc2F)c2nc3ccccc3s2)cc1 [Example 9, N-Benzothiazol-2-yl-2-fluoro-N-(4-methoxy-phenyl)-4-trifluoromethyl-benzamide] | 1960
2 | COc1ccc(N(C(=O)c2ccc([N+](=O)[O-])cc2Cl)c2nc3ccccc3s2)cc1 [Example 12, N-Benzothiazol-2-yl-2-chloro-N-(4-methoxy-phenyl)-4-nitro-benzamide] | 2480
3 | COc1ccc(N(C(=O)c2ccc(Cl)cc2Cl)c2nc3ccc(NC(=O)Cc4ccccc4)cc3s2)cc1OC [Example 52, 2,4-Dichloro-N-(3,4-dimethoxy-phenyl)-N-(6-phenylacetylamino-benzothiazol-2-yl)-benzamide] | 1590
4 | COc1ccc(N(C(=O)c2ccccc2Cl)c2nc3ccc(NS(=O)(=O)N(C)C)cc3s2)cc1OC [Example 57, N-[6-(Dimethylamino-1-sulfonylamino)-benzothiazol-2-yl]-2-chloro-N-(3,4-dimethoxy-phenyl)-benzamide] | 1420

Further lines, results first:

Row | IC50 [nM] | Structure (SMILES)
5 | 1380 | CCN(CC)c1ccc(N(C(=O)c2ccc([N+](=O)[O-])cc2Cl)c2nc3ccccc3s2)cc1 [Example 28, N-Benzothiazol-2-yl-2-chloro-N-(4-diethylamino-phenyl)-4-nitro-benzamide]
6 | 830 | COc1ccc(N(C(=O)c2ccc(Cl)cc2Cl)c2nc3ccc(N)cc3s2)cc1OC [Example 45, N-(6-Amino-benzothiazol-2-yl)-2,4-dichloro-N-(3,4-dimethoxy-phenyl)-benzamide]
7 | 730 | Cc1cc(Cl)ccc1N(C(=O)c1ccc(Cl)cc1Cl)c1nc2ccccc2s1 [Example 8, N-Benzothiazol-2-yl-2,4-dichloro-N-(4-chloro-2-methyl-phenyl)-benzamide]

Tested on: not given
Experiment: not given
Conditions: doses of 5, 10 and 20 mg daily; cited from earlier work

Row | Structure (SMILES) | body weight compared to placebo
8 | Cc1c(C(=O)NN2CCCCC2)nn(-c2ccc(Cl)cc2Cl)c1-c1ccc(Cl)cc1 [SR141716A] | significantly reduced body weight
